Several values for one entry are separate records, joined by “and”; a condition that tells them apart may be missing. Equal values may be shown once. Ends that are not written are not given here.
Experiments:
[1] = biological target: T1, PDZ1-2 tandem of PSD-95 (Homo sapiens, UniProt P78352); assay: FP heterologous competition binding assay; conditions: mean ± SEM
T1 construct: PDZ1-2 (residues 61-249) tandem; made in house; host or cells: E. coli BL21-DE3 pLysS
Source text: (§1) Determined IC50 values may be converted to Ki values.^5 Suitable fluorophores include either 5-FAM or Cy5, which may be coupled to a tripeptide (KSG or CSG) linker attached to the N-terminus of the undecapeptide, to give 5-FAM-NR2B, Cy5-NR2B, 5-FAM-CRIPT and Cy5-CRIPT. The 5-FAM fluorophore may be attached to the undecapeptides by coupling with HATU. The Cy5 fluorophore may be conjugated to the undecapeptides by coupling Cy5-maleimide to the cysteine side chain of the tripeptide sequence CSG attached to the N-terminus of the peptide, as detailed in the Methodology section.
(§2) To measure the affinities between non-fluorescent peptides and PDZ domains, heterologous competition bindings assay were performed. This was done by adding increasing concentrations of peptide to a fixed concentration of Cy5-NR2B, 5-FAM-NR2B, Cy5-CRIPT or 5-FAM-CRIPT (50 nM) and PDZ (20 μM for PDZ1, 3 μM for PDZ2 and 1-2 and 5 μM for PDZ3) in the same TBS buffer and conditions as described above. FP values were then fitted to the general equation: Y=Bottom+(Top−Bottom)/[1[…](10̂^X-logIC50)], where X is the logarithmic value of peptide concentration. Hereby the IC50 value was obtained, which is used to calculate the theoretical competitive inhibition constant, Ki.^5
(§3) A convenient and reliable way to examine interactions between peptide analogues and PDZ domains is by using a fluorescence polarization (FP) assay. The three PDZ domains, PDZ1-3, of PSD-95 were expressed individually as set out above, while PDZ1-2 was also expressed as a tandem construct. […] IC50 values were then converted to Ki values.^5

[2] = biological target: T2, PDZ2 of PSD-95 (Homo sapiens, UniProt P78352); assay: FP heterologous competition binding assay; conditions: for Ki: FP competition, mean ± SEM, NA = no activity/affinity
T2 construct: PDZ2 (residues 155-249); made in house; host or cells: E. coli BL21-DE3 pLysS
Source text: as §1, §2, §3

[3] = biological target: T3, PDZ3 of PSD-95 (Homo sapiens, UniProt P78352); assay: FP heterologous competition binding assay; conditions: for Ki: FP competition, mean ± SEM, NA = no activity/affinity
T3 construct: PDZ3 (residues 309-401); made in house; host or cells: E. coli BL21-DE3 pLysS
Source text: as §1, §2, §3

[4] = biological target: T4, PDZ1 of PSD-95 (Homo sapiens, UniProt P78352); assay: FP heterologous competition binding assay; conditions: for Ki: FP competition, mean ± SEM, NA = no activity/affinity
T4 construct: PSD-95 PDZ1 (residues 61-151); made in house; host or cells: E. coli BL21-DE3 pLysS
Source text: as §1, §2, §3

[5] = system: cultured cortical neurons; assay: Neuronal NMDA excitotoxicity assay (LDH release); format: cell-based, rat; conditions: 500 nM
Source text: When cultured cortical neurons are exposed to high concentrations of NMDA, an excitoxic cascade is initiated, which leads to cellular damage and ultimately neuronal cell death. Consequently, the cell membranes are destroyed, and cytoplasmic enzymes are released into the cell surroundings. The extent of this neuronal cell death can be quantified by measuring the release of cytoplasmic lactate dehydrogenase (LDH) enzyme into the cell medium. The compounds of interest and control compound (3) are investigated with respect to their abilities to attenuate NMDA-mediated toxicity. Compounds that are active in this assay are both membrane permeable, and can prevent ex vivo excitotoxicity, which are important properties for therapeutics towards excitotoxicity mediated diseases.
Cortical neurons were surgically removed from rats (e.g. E21) and then cultured for 7-9 days in vitro in Neurobasal A medium with B-27 supplement (each supplied by Invitrogen), further supplemented with 1 mM glutamine, 50 units/ml penicillin, and 50 μg/ml streptomycin. The following steps were then performed:
1. Samples of the cultured cortical neurons were removed from the Neurobasal-A based culture medium, at various time points prior to exposure to compound, and placed into “transfection medium” ([…]; as defined by Bading et al (1993) Science 260, 181-186) comprising: 10% modified Minimum Essential Medium (supplied by Invitrogen; product no: 21090022; containing Earles salt, but no L-glutamine), 90% Salt-Glucose-Glycine (SGG) medium: (114 mM NaCl, 0.219% NaHCO3, 5.292 mM KCL, 1 mM MgCl2, 2 mM CaCl2, 10 mM HEPES, 1 mM Glycine, 30 mM glucose, 0.5 mM sodium pyruvate, 0.1% Phenol Red), insulin-transferrin-selenite supplement (supplied by Sigma: 7.5 μg insulin/ml, 7.5 μg transferring/ml and 7.5 ng sodium selenite/ml); with a final osmolarity of 325 mosm/l. All subsequent steps were performed in this TM medium. 2. Samples of neurons are exposed to an NMDAR/PSD-95 inhibitor of the invention (compounds 40, 52-90) at a final concentration of between 0.05-50 μM for a period of between 0.5 to 1.5 hours. […] 3. Each sample of neurons was washed at least one time in TM medium to remove the NMDAR/PSD-95 inhibitor, and placed in TM medium. 4. After various periods of time, the samples of neurons were exposed to NMDA at a concentration of between 10-100 μM for a period of 0.5 to 1.5 hours, preferably 1 hour, after which the samples were again placed in TM medium for 24 hours. 5. LDH in the cell medium was quantified using commercial available kits (e.g. Promega Biotech AB, cat no G1780).

[6] = Human blood plasma stability assay; format: in vitro ADME; conditions: for half-life at […]: human, plasma, Blood plasma half life (T1/2)
Experimental: In this assay, the half-life (T1/2) of a compound in blood plasma is measured in vitro, whereby its susceptibility to degradation by proteases, peptidases and general plasma contents is quantified.
Compounds of interest were dissolved in human blood plasma (270 μl; 3H Biomedical, Sweden, cat no 1300-1-P50) to a concentration of 0.25 mM (30 μL of 2.5 mM) and incubated at 37° C. Aliquots (30 μl) were removed at various time intervals (0, 5, 10, 20, 40, 80, 160, 320, 960, 1280, 2550, 4560 and 7240 min) and quenched with 60 μL trichloroacetic acid (aq., 5%). The aliquots were vortexed, and incubated for at least 15 min, at 4° C. prior to centrifugation at 18,000 g for 2 min and the supernatant was analyzed by RP-HPLC to quantify the remaining compound (absorbance at 218 nm).

[7] = biological target: T5, PDZ1-2 of PSD-95 (Homo sapiens, UniProt P78352); assay: Isothermal titration calorimetry (ITC); format: binding; conditions: for Kd: 25° C., PBS pH 7.4, mean ± SEM, read-out: ITC Kd PDZ12
T5 construct: PDZ1-2 (residues 61-249) tandem; made in house; host or cells: E. coli BL21-DE3 pLysS
Source text: This technique (Pierce, M. et al., 1999., Methods, p. 213-221) provides an exact determination of the affinity of a ligand for its target protein, as well as measuring the thermodynamic properties of the interaction, including enthalpy (ΔH), entropy (ΔS) and free energy (ΔG) together with the stoichiometric relationship of ligand binding. In this method, un-labeled ligand is titrated into a solution of un-labeled PDZ protein located in the calorimeter. Heat generated upon protein recognition is measured (ΔH) during the titration of the ligand and the PDZ protein until saturation is achieved, and the heat-exchange upon further ligand addition is negligible. Based on the amount of ligand needed to achieve saturation an affinity constant (Kd) is calculated and in addition ΔH, ΔS, ΔG and stoichiometry are determined.
Calorimetry experiments were performed on a microcalorimeter (Microcal, MA, USA). The ligands were titrated directly into the PDZ solution. All ligands and PDZ proteins were solubilized in PBS buffer (137 mM NaCl, 2.7 mM KCl, 10 mM Na2HPO4, 2 mM KH2PO4, pH 7.4) and when necessary pH was adjusted to 7.4 within 0.02 pH units after solubilization. The concentration of peptide and PDZ in solution was quantified by amino acid analysis. The calorimetry experiments were conducted at 25° C., where the PDZ1-2 concentration was generally adjusted to about 20 μM (200 μL in calorimeter) and the ligand concentration to between 200-2500 μM (injected to the protein as 20×2 μL). Experiments were designed so that c-value (c-value=Ka*[Protein]*n; where Ka is the affinity association constant, [Protein] means protein concentration, and n is the stoichiometry of the reaction) was within 1-1000. The analysed solution was stirred at 1000 rpm, with a reference power of 6 μcal/s. Heats of dilution were initially determined by titrating the ligand into buffer and subtracting these baseline values from the observed “heat values”. The data from each titration experiment were collected by ORIGIN 7.0 (Microcal, MA, USA), which was also used to determine the thermodynamic properties of ligand binding using non-linear least-squares fitting assuming a single-site model.

[8] = biological target: T6, PSD-95's PDZ2 domain (Homo sapiens, UniProt P78352); assay: Polyhistidine pull-down assay; format: binding; conditions: 200 μM
T6 construct: PDZ2 (residues 155-249); His-tag (thrombin-cleavable) (cleaved yes); made in house; host or cells: E. coli (as for the other PDZ constructs)
Source text: The polyhistidine pull-down is an in vitro technique that consists of a polyhistidine-tagged bait NRB2 or CRIPT protein C-terminal domain (e.g NR2B WT peptide with the sequence [sequence]) that can be used to identify competitors of a PDZ domain-binding partner (PDZ domain of PSD-95) (the prey). The bait protein is immobilized on cobalt chelated affinity gel. The bait serves as the secondary affinity support for the protein partner to the bait and for identifying competitors that can displace the prey from the bait. The competitors are peptide analogues, specifically an NMDAR/PSD-95 inhibitor of the present invention. PPIs, between the prey and bait are analyzed by chemically dissociating/eluting the bound prey (PDZ domain or peptide analogue) and visualizing the prey by SDS-PAGE and associated detection methods depending on the sensitivity requirements of the interacting proteins. These methods include Coomassie® Dye, silver, and zinc staining; western blotting; and [^35S] radioisotopic detection. Alternatively, the displaced prey detected on the gel, can be isolated from a polyacrylamide gel, and further analyzed. […]
As bait, a polyhistidine NR2B WT peptide with the sequence [sequence] was synthesized. […] Eluted PDZ2 was analyzed by SDS-PAGE and silver staining.

Molecule	Ki [1] [µM]	Ki [2] [µM]	Ki [3] [µM]	Ki [4]	effect on NMDA-mediated excitotoxicity, in words [5]	other results
CC(C)C[C@H](NC(=O)CNC(=O)[C@H](CO)NC(=O)[C@@H](N)CCCCN)C(=O)N[C@@H](CC(=O)O)C(=O)N[C@H](C(=O)N[C@@H](CCCCN)C(=O)N[C@@H](CC(N)=O)C(=O)N[C@@H](Cc1ccc(O)cc1)C(=O)N[C@@H](CCCCN)C(=O)N[C@@H](CCC(N)=O)C(=O)N[C@H](C(=O)N[C@@H](CO)C(=O)N[C@H](C(=O)O)C(C)C)[C@@H](C)O)[C@@H](C)O [CRIPT (2), reference compound]	45 ± 4.1	25 ± 1.6	2.1 ± 0.15	97 ± 18 µM	–	–
CC(C)[C@H](NC(=O)[C@H](C)NC(=O)[C@@H](NC(=O)[C@H](CCC(=O)O)NCCc1ccc2ccccc2c1)C(C)O)C(=O)O (stereo partly drawn) [Compound 63, N-(Naphtalene-2-yl)ethyl-ETAV]	–	–	10 ± 0.22	1 ± 0.33 µM	inhibit neuronal excitotoxicity, as efficiently as the clinical candidate Tat-N2B (3)	–
CC[C@H](C)[C@H](NC(=O)CCOCCOCCOCCOCCOCCC(=O)N[C@H](C(=O)N[C@@H](CCC(=O)O)C(=O)N[C@@H](CO)C(=O)N[C@@H](CC(=O)O)C(=O)N[C@H](C(=O)O)C(C)C)[C@@H](C)CC)C(=O)N[C@@H](CCC(=O)O)C(=O)N[C@@H](CO)C(=O)N[C@@H](CC(=O)O)C(=O)N[C@H](C(=O)O)C(C)C [(IESDV)2PEG4 (78), (IESDV)2PEG4]	~0.1	–	–	–	–	degradation in human blood plasma, in words [6]: no significant degradation could be detected over a time period of 6 days; half-life at […] [6]: > 133 h; Kd [7]: 0.032 ± 0.01 µM
KSGYEKLSSIESDV-OH [NR2B (1), reference compound]	7 ± 0.19	4.1 ± 0.17	–	18 ± 0.92 µM	–	affinity to PDZ3, in words ([3]; FP assay): no binding
CC[C@H](C)[C@H](NC(=O)CCOCCOCCOCCOCCOCCC(=O)N[C@H](C(=O)N[C@@H](CCC(=O)O)C(=O)N[C@H](C(=O)N[C@@H](C)C(=O)N[C@H](C(=O)O)C(C)C)[C@@H](C)O)[C@@H](C)CC)C(=O)N[C@@H](CCC(=O)O)C(=O)N[C@H](C(=O)N[C@@H](C)C(=O)N[C@H](C(=O)O)C(C)C)[C@@H](C)O [(IETAV)2PEG4 (83), (IETAV)2PEG4]	~0.1	1.1 ± 0.07	–	–	–	half-life at […] [6]: 6.82 h; fold greater affinity towards PDZ1-2 compared to Tat-NR2B (3) (WT or Tat-NR2B) [7]: about 1000 fold; Kd [7]: 0.011 ± 0.01 µM; fold increase in ligand affinity by dimerization compared to monomeric IETAV (82) ([7]; PDZ1-2): 176 fold
CC(C)[C@H](NC(=O)[C@H](C)NC(=O)[C@@H](NC(=O)[C@H](C)NCCC1CCCCC1)[C@@H](C)O)C(=O)O [ATAV (73)]	–	–	–	8.9 ± 1 µM	inhibit neuronal excitotoxicity, as efficiently as the clinical candidate Tat-N2B (3)	–
CC(C)[C@H](NC(=O)[C@H](C)NC(=O)[C@@H](NC(=O)[C@H](CCC(=O)O)NCCC1CCCCC1)C(C)O)C(=O)O (stereo partly drawn) [Compound 56, N-Cyclohexylethyl-ETAV]	–	0.45 ± 0.13	11 ± 0.43	1 µM and 0.94 µM	inhibit neuronal excitotoxicity, as efficiently as the clinical candidate Tat-N2B (3)	fold increase in affinity compared to NR2B peptide (1), PDZ2 [2]: 9 fold; selectivity towards PDZ2 relatively to PDZ3 [2]: 20 fold; fold increase in affinity (more potent) compared to NR2B peptide (1), PDZ1 [4]: ca. 19 fold; selectivity towards PDZ1 relatively to PDZ3 [4]: 10 fold
CN[C@@H](CCC(=O)O)C(=O)N[C@H](C(=O)N[C@@H](C)C(=O)N[C@H](C(=O)O)C(C)C)C(C)O (stereo partly drawn) [Compound 40, N-Methyl-ETAV]	–	8.9 ± 0.5	78 ± 1.5	11 ± 0.47 µM	–	inhibition of PDZ2 binding to NR2B WT bait in pull-down, in words [8]: very effective inhibitor; fold increase in Ki (loss of affinity) compared to NR2B peptide (1), PDZ2 [2]: 2 fold

Reference: patent US20160176924A1, “MODIFIED PEPTIDES AS POTENT INHIBITORS OF THE PSD-95/NMDA RECEPTOR INTERACTION” (priority 2008, published 2016)
